Like-named read-outs stand apart in the source and are kept apart here.
Experiments:
[1] = test system: A549-EGFRB cells; test: EGFRB assay, nuclei count readout; format: cell-based; details: for HTS % inhibition at 10 μM Nuclei count: pilot screen, 10 μM compound, average of duplicates; for inhibition at 10 µM: read-out: HTS % inhibition at 10 μM Nuclei count
[2] = test system: EGFR activation (granule formation) in A549-EGFRB cells; test: EGFRB assay, granule count readout; format: cell-based; details: for IC50 / EC50: read-out: IC50 or EC50 (nM) Granule count; for inhibition at 10 µM: read-out: HTS % inhibition at 10 μM Granule count
[3] = target: recombinant EGFR kinase; details: read-out: Reported IC50 toward recombinant EGFR kinase; cited from earlier work
[4] = target: EGFR kinase (Homo sapiens, UniProt P00533); test: Luminescence ADP production kinase assay, EGFR; format: biochemical; details: for Luminescence ADP kinase assay IC50 EGFR: 50 nM enzyme, 200 μM ATP, low limit 10 nM, * = partial inhibition
[5] = target: SRC kinase (Homo sapiens, UniProt P12931); test: Luminescence ADP production kinase assay, SRC; format: biochemical; details: for Luminescence ADP kinase assay IC50 SRC: 50 nM enzyme, 200 μM ATP, * = partial inhibition
[6] = target: ABL kinase (Homo sapiens, UniProt P00519); test: Luminescence ADP production kinase assay, ABL; format: biochemical; details: for Luminescence ADP kinase assay IC50 ABL: 50 nM enzyme, 200 μM ATP, * = partial inhibition
[7] = target: VEGFR1 kinase (Homo sapiens, UniProt P17948); test: Luminescence ADP production kinase assay, VEGFR1; details: for Luminescence ADP kinase assay IC50 VEGFR1: 50 nM enzyme, 200 μM ATP, * = partial inhibition
[8] = test system: H2030 cells (wild type EGFR); test: Alamar Blue viability assay, H2030; format: cell-based; details: for IC50: Homo sapiens, NCI-H2030, 120 h, read-out: Alamar Blue viability assay IC50 H2030; for Alamar Blue viability assay IC50 H2030: 120 hours incubation, * = partial inhibition
[9] = test system: HCC4011 cells (L858R EGFR mutation); test: Alamar Blue viability assay, HCC4011; format: cell-based, human; details: for IC50: Homo sapiens, HCC4011, 120 h, read-out: Alamar Blue viability assay IC50 HCC4011; for Alamar Blue viability assay IC50 HCC4011: 120 hours incubation, * = partial inhibition
[10] = test system: A549 cells (wild type EGFR); test: Alamar Blue viability assay, A549; format: cell-based; details: for IC50: Homo sapiens, A549, 120 h, read-out: Alamar Blue viability assay IC50 A549; for Alamar Blue viability assay IC50 A549: 120 hours incubation, * = partial inhibition
[11] = test system: H3255 cells (L858R EGFR mutation); test: Alamar Blue viability assay, H3255; format: cell-based, human; details: for IC50: Homo sapiens, NCI-H3255, 120 h, read-out: Alamar Blue viability assay IC50 H3255; for Alamar Blue viability assay IC50 H3255: 120 hours incubation, * = partial inhibition
[12] = inhibitors, dose response up to 10 μM, N.E. = no effect, * = partial inhibition
[13] = inhibitors, dose response up to 10 μM, ±standard deviation, N.E. = no effect
[14] = activators, dose response up to 10 μM, N.E. = no effect

Sequence of ABL kinase (P00519 whole entry): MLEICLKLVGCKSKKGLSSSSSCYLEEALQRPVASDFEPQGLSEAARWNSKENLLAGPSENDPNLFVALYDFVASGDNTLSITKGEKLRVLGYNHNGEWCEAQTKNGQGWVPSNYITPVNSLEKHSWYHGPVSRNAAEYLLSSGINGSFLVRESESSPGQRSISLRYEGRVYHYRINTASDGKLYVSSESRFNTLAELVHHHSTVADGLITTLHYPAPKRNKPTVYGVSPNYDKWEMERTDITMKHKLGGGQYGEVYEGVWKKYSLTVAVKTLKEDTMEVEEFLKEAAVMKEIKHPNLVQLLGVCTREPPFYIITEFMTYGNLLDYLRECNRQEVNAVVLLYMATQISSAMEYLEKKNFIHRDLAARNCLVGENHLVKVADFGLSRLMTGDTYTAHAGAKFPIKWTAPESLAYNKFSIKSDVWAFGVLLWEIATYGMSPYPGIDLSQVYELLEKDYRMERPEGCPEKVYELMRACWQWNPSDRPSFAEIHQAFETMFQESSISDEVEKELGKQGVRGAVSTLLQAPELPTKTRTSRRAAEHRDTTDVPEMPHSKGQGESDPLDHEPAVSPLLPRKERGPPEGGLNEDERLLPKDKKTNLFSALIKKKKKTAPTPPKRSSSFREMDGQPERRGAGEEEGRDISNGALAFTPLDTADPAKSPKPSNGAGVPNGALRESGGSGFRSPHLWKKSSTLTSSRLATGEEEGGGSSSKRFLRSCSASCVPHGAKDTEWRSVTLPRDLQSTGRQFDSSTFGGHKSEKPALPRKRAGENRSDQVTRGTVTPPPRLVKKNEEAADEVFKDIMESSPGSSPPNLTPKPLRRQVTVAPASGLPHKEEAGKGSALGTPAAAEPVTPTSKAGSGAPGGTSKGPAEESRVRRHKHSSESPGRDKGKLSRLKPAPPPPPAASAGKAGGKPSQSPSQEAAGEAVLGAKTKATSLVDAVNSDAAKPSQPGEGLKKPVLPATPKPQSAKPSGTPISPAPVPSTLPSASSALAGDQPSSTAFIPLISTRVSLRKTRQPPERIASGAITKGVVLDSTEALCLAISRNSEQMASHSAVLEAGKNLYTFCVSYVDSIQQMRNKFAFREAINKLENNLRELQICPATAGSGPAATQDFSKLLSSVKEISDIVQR
Sequence of VEGFR1 kinase (P17948 27-1338): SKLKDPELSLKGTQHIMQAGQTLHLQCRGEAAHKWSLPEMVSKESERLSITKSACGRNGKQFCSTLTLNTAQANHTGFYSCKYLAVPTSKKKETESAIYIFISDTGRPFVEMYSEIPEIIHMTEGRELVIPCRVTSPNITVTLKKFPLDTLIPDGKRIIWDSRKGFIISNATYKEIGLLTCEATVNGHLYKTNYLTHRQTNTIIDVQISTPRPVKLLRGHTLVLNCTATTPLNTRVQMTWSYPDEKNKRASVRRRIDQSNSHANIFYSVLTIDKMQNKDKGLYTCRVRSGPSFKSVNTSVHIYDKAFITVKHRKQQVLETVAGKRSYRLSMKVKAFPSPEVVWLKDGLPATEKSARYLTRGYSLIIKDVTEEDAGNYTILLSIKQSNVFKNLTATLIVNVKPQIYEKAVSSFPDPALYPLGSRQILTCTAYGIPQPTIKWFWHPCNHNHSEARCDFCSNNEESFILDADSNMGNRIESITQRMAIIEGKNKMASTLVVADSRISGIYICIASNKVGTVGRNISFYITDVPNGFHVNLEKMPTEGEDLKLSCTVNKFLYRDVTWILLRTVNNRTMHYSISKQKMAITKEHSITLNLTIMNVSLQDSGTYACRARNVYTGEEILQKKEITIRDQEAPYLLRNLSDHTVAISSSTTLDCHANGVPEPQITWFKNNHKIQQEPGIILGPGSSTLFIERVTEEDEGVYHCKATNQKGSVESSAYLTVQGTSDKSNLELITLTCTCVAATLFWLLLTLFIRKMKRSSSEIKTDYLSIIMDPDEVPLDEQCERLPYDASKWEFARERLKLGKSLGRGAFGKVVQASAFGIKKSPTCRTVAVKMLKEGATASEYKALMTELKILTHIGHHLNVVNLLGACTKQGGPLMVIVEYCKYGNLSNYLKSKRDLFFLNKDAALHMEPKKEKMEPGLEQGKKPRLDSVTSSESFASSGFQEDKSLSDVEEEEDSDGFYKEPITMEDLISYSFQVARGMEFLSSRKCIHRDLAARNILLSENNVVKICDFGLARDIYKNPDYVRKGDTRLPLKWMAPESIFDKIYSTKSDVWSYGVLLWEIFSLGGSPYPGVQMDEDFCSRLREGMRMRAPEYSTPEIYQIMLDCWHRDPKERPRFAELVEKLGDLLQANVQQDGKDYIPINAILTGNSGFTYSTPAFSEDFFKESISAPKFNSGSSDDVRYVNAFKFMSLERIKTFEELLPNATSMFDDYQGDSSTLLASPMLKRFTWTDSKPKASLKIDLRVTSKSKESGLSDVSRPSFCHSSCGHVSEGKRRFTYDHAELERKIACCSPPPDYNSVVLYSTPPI
Sequence of EGFR kinase (P00533 25-1210): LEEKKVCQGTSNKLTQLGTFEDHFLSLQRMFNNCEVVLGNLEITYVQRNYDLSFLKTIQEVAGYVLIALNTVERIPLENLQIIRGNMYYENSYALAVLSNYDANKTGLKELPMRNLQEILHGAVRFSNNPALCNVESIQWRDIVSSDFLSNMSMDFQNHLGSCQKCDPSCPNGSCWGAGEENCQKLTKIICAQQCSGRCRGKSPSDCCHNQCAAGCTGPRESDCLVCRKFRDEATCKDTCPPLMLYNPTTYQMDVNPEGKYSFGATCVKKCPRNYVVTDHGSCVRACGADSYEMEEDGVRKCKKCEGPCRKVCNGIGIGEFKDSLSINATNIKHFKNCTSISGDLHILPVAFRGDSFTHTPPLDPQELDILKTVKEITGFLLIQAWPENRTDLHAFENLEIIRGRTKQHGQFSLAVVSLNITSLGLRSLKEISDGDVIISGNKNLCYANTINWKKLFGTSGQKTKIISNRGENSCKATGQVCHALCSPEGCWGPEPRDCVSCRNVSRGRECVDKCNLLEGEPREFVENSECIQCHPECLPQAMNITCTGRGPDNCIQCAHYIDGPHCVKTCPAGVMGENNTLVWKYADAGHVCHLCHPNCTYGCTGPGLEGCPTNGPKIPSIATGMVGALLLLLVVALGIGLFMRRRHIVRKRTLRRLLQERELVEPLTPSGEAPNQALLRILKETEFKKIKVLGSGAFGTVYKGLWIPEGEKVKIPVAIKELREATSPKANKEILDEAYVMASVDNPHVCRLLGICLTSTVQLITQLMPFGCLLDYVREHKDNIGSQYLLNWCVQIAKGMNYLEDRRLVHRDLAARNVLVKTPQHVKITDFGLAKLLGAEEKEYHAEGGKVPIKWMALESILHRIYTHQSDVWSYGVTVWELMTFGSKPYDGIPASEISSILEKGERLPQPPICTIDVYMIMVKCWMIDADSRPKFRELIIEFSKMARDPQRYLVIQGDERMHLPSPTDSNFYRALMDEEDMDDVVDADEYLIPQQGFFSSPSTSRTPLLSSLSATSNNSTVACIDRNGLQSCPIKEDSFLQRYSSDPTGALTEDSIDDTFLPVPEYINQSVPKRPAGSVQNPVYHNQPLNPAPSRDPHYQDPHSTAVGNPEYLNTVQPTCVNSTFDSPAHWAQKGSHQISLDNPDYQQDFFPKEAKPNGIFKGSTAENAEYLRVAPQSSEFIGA
Sequence of SRC kinase (P12931 whole entry): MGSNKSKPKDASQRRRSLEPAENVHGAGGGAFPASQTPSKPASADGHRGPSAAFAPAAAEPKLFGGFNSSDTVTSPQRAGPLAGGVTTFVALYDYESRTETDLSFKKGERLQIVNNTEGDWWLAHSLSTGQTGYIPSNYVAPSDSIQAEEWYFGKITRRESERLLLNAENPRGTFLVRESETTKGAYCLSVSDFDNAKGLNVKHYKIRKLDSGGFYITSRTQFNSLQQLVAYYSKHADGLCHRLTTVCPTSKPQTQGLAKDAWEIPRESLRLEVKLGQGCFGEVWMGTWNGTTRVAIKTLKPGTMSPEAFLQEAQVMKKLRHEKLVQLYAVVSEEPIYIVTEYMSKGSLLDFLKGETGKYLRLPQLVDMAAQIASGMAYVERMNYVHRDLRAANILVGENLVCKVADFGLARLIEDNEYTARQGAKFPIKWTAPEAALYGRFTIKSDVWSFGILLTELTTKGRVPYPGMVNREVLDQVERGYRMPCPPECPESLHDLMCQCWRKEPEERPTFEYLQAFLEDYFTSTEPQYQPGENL

For CO[C@H]1/C=C\C=C(/C)C(=O)NC2=CC(=O)C(NCCN(C)C)=C(C[C@@H](C)C[C@H](OC)[C@H](O)[C@@H](C)/C=C(\C)[C@@H]1OC(N)=O)C2=O [17-DMAG, 17-dimethylaminoethylamino-17-demethoxy-geldanamycin], the “IC50 or EC50 (nM) Nuclei count” value [1, 12] was “N.E”, the “HTS % inhibition at 10 μM Nuclei count” value [1] was 33% and the IC50 [2, 13] was 29 ± 3 nM.
In the case of CC(C)[C@H](CO)Nc1nc(Nc2cc(N)cc(Cl)c2)c2ncn(C(C)C)c2n1 [Aminopurvalanol A, aminopurvalanol A], the “IC50 or EC50 (nM) Nuclei count” value [1, 12] is reported as “N.E.^*”, the “HTS % inhibition at 10 μM Nuclei count” value [1] is reported as 40% and the IC50 [2, 13] is reported as 910 ± 400 nM.
In the case of CCN(CC)CC1CCN(c2ncc3ncnc(Nc4ccc(F)c(Cl)c4)c3n2)CC1.Cl.Cl [BIBU 1361], the “IC50 or EC50 (nM) Nuclei count” value [1, 12] is reported as “N.E”, the “HTS % inhibition at 10 μM Nuclei count” value [1] is reported as 3% and the IC50 [2, 13] is reported as 38 ± 7 nM. For the same molecule, the IC50 [3] was 3 nM.
For C[C@H]1C[C@H]2[C@@H]3CCC4=CC(=O)C=C[C@]4(C)[C@@]3(Cl)[C@@H](O)C[C@]2(C)[C@@]1(O)C(=O)CO [Beclomethasone, beclomethasone], the “Luminescence ADP kinase assay IC50 EGFR” value [4] was “no inhibitory effects”, the “IC50 or EC50 (nM) Nuclei count” value [1, 14] was “N.E” and the “HTS % inhibition at 10 μM Nuclei count” value [1] was 16%. The EC50 ([2]; activators of granule formation, dose response up to 10 μM, ±standard deviation) was 42 ± 7 nM, the “Luminescence ADP kinase assay IC50 SRC” value [5] was “no inhibitory effects” and the “Luminescence ADP kinase assay IC50 ABL” value [6] was “no inhibitory effects”. For the same molecule, the “Luminescence ADP kinase assay IC50 VEGFR1” value [7] was “no inhibitory effects”.
In the case of CCc1cc(-c2n[nH]c(C)c2-c2ccc3c(c2)OCCO3)c(O)cc1O [CCT 018159], the “Inhibition of granule formation in dose response” value ([2]; at 5 and 10 μM) is reported as “partial inhibition”.
CC[C@@]1(O)C(=O)OCc2c1cc1n(c2=O)Cc2cc3ccccc3nc2-1 [Camptothecin, camptothecin] gave an IC50 [4] greater than 10000 nM, an IC50 [8] of 17 ± 5 nM and an IC50 [9] of 290 ± 40 nM. The “IC50 or EC50 (nM) Nuclei count” value [1, 12] was “N.E.^*”, the inhibition at 10 µM [1] was 40% and the IC50 [10] was 35 ± 50 nM. For the same molecule, the IC50 [11] was 390 ± 50 nM, the inhibition at 10 µM [2] was 81% and the IC50 [2] was 720 ± 100 nM. The IC50 [5] was greater than 10000 nM, the IC50 [6] was greater than 10000 nM and the IC50 [7] was greater than 10000 nM.
For COC(=O)/C=C/c1cc(O)ccc1O [Erbstatin analog], the “Luminescence ADP kinase assay IC50 EGFR” value [4] was “inactive”, the “Alamar Blue viability assay IC50 H2030” value [8] was “only partial inhibition” and the “Alamar Blue viability assay IC50 HCC4011” value [9] was “only partial inhibition”. The “IC50 or EC50 (nM) Nuclei count” value [1, 12] was “N.E.^*”, the “HTS % inhibition at 10 μM Nuclei count” value [1] was 2% and the “Alamar Blue viability assay IC50 A549” value [10] was “only partial inhibition”. For the same molecule, the “Alamar Blue viability assay IC50 H3255” value [11] was “only partial inhibition”, the “IC50 or EC50 (nM) Granule count” value [2, 13] was “N.E” and the “Luminescence ADP kinase assay IC50 SRC” value [5] was “inactive”. For the same molecule, the “Luminescence ADP kinase assay IC50 ABL” value [6] was “inactive” and the “Luminescence ADP kinase assay IC50 VEGFR1” value [7] was “inactive”.
With C#Cc1cccc(Nc2ncnc3cc(OCCOC)c(OCCOC)cc23)c1 [Erlotinib, erlotinib] the “IC50 or EC50 (nM) Nuclei count” value [1] was “N.E” and the inhibition at 10 µM [1] was 36%.
In the case of CC1(C)O[C@@H]2C[C@H]3[C@@H]4C[C@H](F)C5=CC(=O)CC[C@]5(C)[C@H]4[C@@H](O)C[C@]3(C)[C@]2(C(=O)CO)O1 [Flurandrenolide, flurandrenolide], the IC50 [4] is reported as greater than 10000 nM, the “Luminescence ADP kinase assay IC50 EGFR” value [4] is reported as “no inhibitory effects” and the “Alamar Blue viability assay IC50 H2030” value [8] is reported as “inactive”. For the same molecule, the IC50 [8] was greater than 10000 nM, the “Alamar Blue viability assay IC50 HCC4011” value [9] was “inactive” and the IC50 [9] was greater than 10000 nM. For the same molecule, the “IC50 or EC50 (nM) Nuclei count” value [1, 14] was “N.E”, the inhibition at 10 µM [1] was 7% and the “Alamar Blue viability assay IC50 A549” value [10] was “inactive”. For the same molecule, the IC50 [10] was greater than 10000 nM, the “Alamar Blue viability assay IC50 H3255” value [11] was “inactive” and the IC50 [11] was greater than 10000 nM. The inhibition at 10 µM [2] was -165%, the EC50 [2] was 23 ± 20 nM and the IC50 [5] was greater than 10000 nM. The “Luminescence ADP kinase assay IC50 SRC” value [5] was “no inhibitory effects”, the IC50 [7] was greater than 10000 nM and the “Luminescence ADP kinase assay IC50 VEGFR1” value [7] was “no inhibitory effects”.
With CN(C)c1cc2c(Nc3ccc4c(cnn4Cc4ccccc4)c3)ncnc2cn1 [GW 2974] the “IC50 or EC50 (nM) Nuclei count” value [1, 12] was “N.E”, the “HTS % inhibition at 10 μM Nuclei count” value [1] was 18% and the IC50 [2, 13] was 1300 nM.
Work on CS(=O)(=O)CCNCc1nc(-c2ccc3ncnc(Nc4ccc(OCc5cccc(F)c5)c(Cl)c4)c3c2)cs1 [GW 583340] yielded an IC50 [4] of 1300 ± 100 nM, an IC50 [8] greater than 10000 nM and an IC50 [9] of 2000 ± 200 nM. For the same molecule, the “IC50 or EC50 (nM) Nuclei count” value [1, 12] was “N.E”, the inhibition at 10 µM [1] was 26% and the IC50 [10] was greater than 10000 nM. For the same molecule, the IC50 [11] was 960 ± 60 nM, the inhibition at 10 µM [2] was 94% and the IC50 [2] was 2000 nM. The IC50 [5] was greater than 10000 nM, the IC50 [6] was greater than 10000 nM and the IC50 [7] was greater than 10000 nM.
With CS(=O)(=O)CCNCc1ccc(-c2ccc3ncnc(Nc4ccc(OCc5cccc(F)c5)c(Cl)c4)c3c2)o1 [Lapatinib, lapatinib] the IC50 [8] was greater than 10000 nM, the IC50 [9] was 1500 ± 100 nM and the “IC50 or EC50 (nM) Nuclei count” value [1] was “N.E”. It also gave an inhibition at 10 µM [1] of 0%, an IC50 [10] greater than 10000 nM and an IC50 [11] of 1200 ± 100 nM. It also gave an inhibition at 10 µM [2] of 91% and an IC50 [2] of 590 ± 30 nM.
With COc1cc2ncnc(Nc3cccc(Br)c3)c2cc1OC [PD 153035] the IC50 [8] was greater than 10000 nM, the IC50 [9] was 48 ± 12 nM and the “IC50 or EC50 (nM) Nuclei count” value [1] was “N.E”. For the same molecule, the inhibition at 10 µM [1] was 12%, the IC50 [10] was greater than 10000 nM and the IC50 [11] was 72 ± 12 nM. It also gave an inhibition at 10 µM [2] of 97%, an IC50 [2] of 91 ± 20 nM and an IC50 [5] greater than 10000 nM. The IC50 [7] was greater than 10000 nM.
CO[C@@H]1[C@H](N(C)C(=O)c2ccccc2)C[C@H]2O[C@]1(C)n1c3ccccc3c3c4c(c5c6ccccc6n2c5c31)C(=O)NC4 [PKC 412] gave an IC50 [2] of 1300 nM.
With COc1cc2ncnc(Nc3cccc(Cl)c3)c2cc1OC [Tyrphostin AG 1478] the IC50 [8] was greater than 10000 nM, the IC50 [9] was 33 ± 7 nM and the “IC50 or EC50 (nM) Nuclei count” value [1, 12] was “N.E”. For the same molecule, the inhibition at 10 µM [1] was 12%, the IC50 [10] was greater than 10000 nM and the IC50 [11] was 49 ± 1 nM. The inhibition at 10 µM [2] was 94%, the IC50 [2] was 65 ± 8 nM and the IC50 [5] was 2600 ± 1300 nM. The IC50 [6] was 2000 ± 600 nM and the IC50 [7] was greater than 10000 nM.
For COc1cc2ncnc(Nc3ccc(Cl)cc3F)c2cc1OC [ZM-306416], the “Alamar Blue viability assay IC50 H2030” value [8] was “inactive”, the “IC50 or EC50 (nM) Nuclei count” value [1, 12] was “N.E” and the “HTS % inhibition at 10 μM Nuclei count” value [1] was 21%. The “Alamar Blue viability assay IC50 A549” value [10] was “inactive” and the IC50 [2, 13] was 670 ± 200 nM.
